# Laboratory results: article PMC6695839, “Interspecies Variation in NCMN-O-Demethylation in Liver Microsomes from Various Species” (Molecules, 2019)
# “And” between values parts separate entries of the source, which are not always exact repeats. Identical values can stand only once.
# How the values were obtained:
# Type in all cases: in vitro ADME
# [1] = Kinetic analysis of NCMN-O-demethylation in human liver microsomes; conditions: human, human liver microsomes, pH 7.4; HLM; Michaelis-Menten; substrate 1-150 µM; read-out: Km1 (Km) of NCMN-O-demethylation
# Procedure: (§1) The formation rates of NCHN were within the linear range of the protein concentration and incubation time. NCMN (1, 2.5, 5, 7.5, 10, 25, 50, 75, 100 and 150 µM) was incubated with HLM, MLM, RLM, DLM, PLM, CyLM (0.25mg protein/mL) as well as rat CYP1A2 (100 nM) for 30min. The apparent Km and Vmax values were determined by fitting the substrate concentrations versus the metabolite reaction velocities to the Michaelis-Menten equation (Equation (1)) and the Biphasic Kinetics equation (Equation (2)), and the results were graphically represented by Eadie-Hofstee plots. (1) v=Vmax[S]/Km+[S] (2) v=Vmax 1[S]/Kmax 1+[S]+Vmax 2[S]/Kmax 2+[S] where v is the rate of the reaction, Vmax is the maximum velocity estimate, Km is the substrate affinity constant, [S] is the substrate concentration.
# (§2) The UFLC system consisted of a SIL-20ACHT auto sampler, a DGU-20A3 in-line degasser, a CBM-20A communications bus module, a CTO-20AC column oven, two LC-20AD pumps and an SPD-M20A photodiode array detector were used for analyzing the samples. The separation of NCMN and its metabolites was achieved on a Shim-pack XR-ODS (75 mm × 2.0 mm, 2.2 µm, Shimadzu, Kyoto, Japan) analytical column with an ODS guard column (5 mm × 2.0 mm, 2.2 µm, Shimadzu, Kyoto, Japan). The O-demethylation was quantified at the detector wavelength of 243 nm. […] The column oven was kept at 40 °C.
# [2] = system: human liver microsomes (HLM); assay: as above; conditions: Michaelis-Menten, substrate 1-150 µM
# Procedure: as §1, §2
# [3] = system: cynomolgus monkey liver microsomes (CyLM); assay: Kinetic analysis of NCMN-O-demethylation in cynomolgus monkey liver microsomes; conditions: biphasic kinetics, substrate 1-150 µM
# Procedure: as §1, §2
# [4] = Kinetic analysis of NCMN-O-demethylation in beagle dog liver microsomes; conditions: beagle, dog, beagle dog liver microsomes, pH 7.4; DLM; Michaelis-Menten; substrate 1-150 µM; read-out: Km1 (Km) of NCMN-O-demethylation
# Procedure: as §1, §2
# [5] = system: beagle dog liver microsomes (DLM); assay: as above; conditions: Michaelis-Menten, substrate 1-150 µM
# Procedure: as §1, §2
# [6] = system: minipig liver microsomes (PLM); assay: Kinetic analysis of NCMN-O-demethylation in minipig liver microsomes; conditions: biphasic kinetics, substrate 1-150 µM
# Procedure: as §1, §2
# [7] = Kinetic analysis of NCMN-O-demethylation in mouse liver microsomes; conditions: mouse, mouse liver microsomes, pH 7.4; MLM; Michaelis-Menten; substrate 1-150 µM; read-out: Km1 (Km) of NCMN-O-demethylation
# Procedure: as §1, §2
# [8] = system: mouse liver microsomes (MLM); assay: as above; conditions: Michaelis-Menten, substrate 1-150 µM
# Procedure: as §1, §2
# [9] = system: rat liver microsomes (RLM); assay: Kinetic analysis of NCMN-O-demethylation in rat liver microsomes; conditions: biphasic kinetics, substrate 1-150 µM
# Procedure: as §1, §2
compound,measurement,setting,value
"COc1ccc2c3c(cccc13)C(=O)N(CCCC(=O)O)C2=O [NCMN, N-(3-carboxypropyl)-4-methoxy-1,8-naphthalimide]",Km at 30 min,[1],9.54 ± 0.24 µM
same,Vm1 (Vmax) of NCMN-O-demethylation,[2],25.61 ± 0.15 nmol/min/mg
same,Km1 of NCMN-O-demethylation,[3],198.70 ± 39.66 µM
same,Km2 of NCMN-O-demethylation,[3],0.18 ± 0.09 µM
same,Vm1 of NCMN-O-demethylation,[3],8.43 ± 0.91 nmol/min/mg
same,Vm2 of NCMN-O-demethylation,[3],0.28 ± 0.08 nmol/min/mg
same,Km at 30 min,[4],61.8 ± 3.52 µM
same,Vm1 (Vmax) of NCMN-O-demethylation,[5],13.53 ± 0.34 nmol/min/mg
same,Km1 of NCMN-O-demethylation,[6],242.80 ± 111.80 µM
same,Km2 of NCMN-O-demethylation,[6],5.70 ± 3.27 µM
same,Vm1 of NCMN-O-demethylation,[6],28.22 ± 5.82 nmol/min/mg
same,Vm2 of NCMN-O-demethylation,[6],3.35 ± 1.20 nmol/min/mg
same,Km at 30 min,[7],22.8 ± 1.22 µM
same,Vm1 (Vmax) of NCMN-O-demethylation,[8],33.17 ± 0.42 nmol/min/mg
same,Km1 of NCMN-O-demethylation,[9],1134.00 µM and 1134.00 ± 482.10 µM
same,Km2 of NCMN-O-demethylation,[9],5.66 ± 0.80 µM
same,Vm1 of NCMN-O-demethylation,[9],78.42 ± 31.17 nmol/min/mg
same,Vm2 of NCMN-O-demethylation,[9],5.71 ± 0.45 nmol/min/mg
